Among the test systems are OVCAR-4 ovarian; UACC-257 melanoma; CCRF-CEM leukemia; SR leukemia; SN12C renal; UACC-62 melanoma; HOP-92 NSCLC; NCI-H23 lung; MALME-3M melanoma; TK-10 renal.
Assay in all cases: NCI tumour cell line growth inhibition, 48 h

Structures are written as SMILES. Several values for one entry are separate records, joined by “and”; a condition that tells them apart may be missing. Equal values may be shown once.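 The compound was tested at five concentrations on cells cultured in 96-well plates, with a 48-hour exposure period. GI50 marks 50% less growth. TGI denotes the concentration required for complete inhibition of growth.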 Bounds are passed on as bounds.

For the compound `Fc1ccc(Nc2ccnc(N3CCN(c4ccnc5cc(Cl)ccc45)CC3)n2)cc1`, the GI50 in the assay on OVCAR-4 ovarian was 2.36 µM; in the assay on UACC-257 melanoma, 1.95 µM; with CCRF-CEM leukemia, 2.74 µM; in the assay on SR leukemia it was 2.61 µM; in the assay on SN12C renal, 2.57 µM; in the assay with UACC-62 melanoma, 1.73 µM. Moreover, the TGI is above 100 µM in the assay on OVCAR-4 ovarian; 4.27 µM in the assay with UACC-257 melanoma; 10.5 µM in the assay on CCRF-CEM leukemia; 8.76 µM in the assay on SR leukemia; above 100 µM in the assay with SN12C renal; 4.53 µM in the assay with UACC-62 melanoma.
Consider `CC1=NN(c2ccccc2)C(=O)C1N=Nc1ccc(Br)cc1C` (stereo not drawn), for which the TGI in the assay on OVCAR-4 ovarian, with HOP-92 NSCLC, in the assay with UACC-257 melanoma, with CCRF-CEM leukemia, in the assay with NCI-H23 lung and in the assay on SN12C renal was above 100 µM in each case. The TGI in the assay on MALME-3M melanoma, in the assay on TK-10 renal and with UACC-62 melanoma was above 100 µM in each case.
In the case of `Cc1cc(S(=O)(=O)Nc2nc3ccccc3s2)c(SCc2ccccc2)cc1Cl`, the GI50 with OVCAR-4 ovarian is 13.2 µM; in the assay on HOP-92 NSCLC, 11.8 µM; in the assay with UACC-257 melanoma, 18.3 µM; with CCRF-CEM leukemia, 13.1 µM; with NCI-H23 lung, 13.8 µM; in the assay with SR leukemia, 18.3 µM. Besides, the GI50 in the assay with SN12C renal was 14.3 µM; in the assay with TK-10 renal, 14.1 µM; with UACC-62 melanoma, 10.8 µM. Also, the TGI with OVCAR-4 ovarian worked out at 51.8 µM; in the assay with HOP-92 NSCLC, 43.6 µM; in the assay on UACC-257 melanoma, 45.9 µM; with CCRF-CEM leukemia it was 51.3 µM; with NCI-H23 lung it was 26.7 µM; in the assay with SR leukemia it was 58 µM. In addition, the TGI with SN12C renal was 28.6 µM; with TK-10 renal, 44.7 µM; with UACC-62 melanoma, 27.9 µM.
As for `CCN(CC(O)COc1ccc2c(c1)[n+]([O-])nc(N)[n+]2[O-])C(C)=O` (stereo not drawn), the TGI in the assay with OVCAR-4 ovarian, in the assay on UACC-257 melanoma, with CCRF-CEM leukemia, with NCI-H23 lung, in the assay on SR leukemia and in the assay on SN12C renal was above 100 µM in each case. For the same compound, the TGI with TK-10 renal and in the assay with UACC-62 melanoma was above 100 µM in each case.
As for `CNC(=O)c1cc(Oc2ccc(NC(=O)Nc3ccc(Cl)c(C(F)(F)F)c3)cc2)ccn1`, the GI50 with OVCAR-4 ovarian was 3.07 µM and 3.67 µM and 3.42 µM; in the assay on HOP-92 NSCLC it was 1.65 µM and 1.43 µM and 1.75 µM; in the assay on UACC-257 melanoma, 2.14 µM and 1.99 µM and 2.2 µM; in the assay on CCRF-CEM leukemia, 3.18 µM and 4.35 µM and 2.27 µM; with NCI-H23 lung, 2.19 µM and 1.65 µM and 1.95 µM; in the assay on SN12C renal, 2.84 µM and 2.98 µM and 2.31 µM. In addition, the GI50 with MALME-3M melanoma is 2.9 µM and 2.08 µM and 2.15 µM; with TK-10 renal it was 4.41 µM and 3.83 µM and 4.48 µM; with UACC-62 melanoma it was 2.4 µM and 1.96 µM and 1.7 µM. Also, the TGI with OVCAR-4 ovarian is > 10 µM and 11.5 µM and 22.2 µM; in the assay on HOP-92 NSCLC, 5.62 µM and 5.12 µM and 6.38 µM; in the assay on UACC-257 melanoma, 6.41 µM and 5.16 µM and 6.15 µM; in the assay with CCRF-CEM leukemia, > 10 µM and > 100 µM and 16.7 µM; with NCI-H23 lung, 9.84 µM and 5.55 µM and 8.21 µM; in the assay on SN12C renal it was > 10 µM and 10.6 µM and 7.15 µM. Also, the TGI in the assay with MALME-3M melanoma was > 10 µM and 6.71 µM and 11 µM; in the assay on TK-10 renal, > 10 µM and 9.96 µM and 20.2 µM; in the assay with UACC-62 melanoma it was 8.52 µM and 5.23 µM and 4.49 µM.
With `O=C(C#Cc1ccccc1)Nc1ccccc1CC(c1c[nH]c2ccccc12)c1c[nH]c2ccccc12`, the TGI was above 100 µM in the assay with UACC-257 melanoma; 20 µM in the assay on CCRF-CEM leukemia; 37.1 µM in the assay on NCI-H23 lung; 30 µM in the assay on SN12C renal; above 100 µM in the assay on MALME-3M melanoma; 96.6 µM with TK-10 renal. The compound also showed a TGI in the assay on UACC-62 melanoma of 22 µM.
`CCCCCCCN(CCCCCCC)C(=N)c1ccc(OC)c2ccccc12`: the GI50 was 1.36 µM in the assay on OVCAR-4 ovarian; 0.603 µM in the assay on HOP-92 NSCLC; 1.76 µM with CCRF-CEM leukemia; 1.1 µM with NCI-H23 lung; 1.24 µM in the assay with SN12C renal; 1.46 µM with TK-10 renal. The GI50 in the assay on UACC-62 melanoma is 1.34 µM. The TGI came out at 3.02 µM in the assay on OVCAR-4 ovarian; 2.02 µM with HOP-92 NSCLC; 3.63 µM with CCRF-CEM leukemia; 2.53 µM with NCI-H23 lung; 2.76 µM in the assay with SN12C renal; 2.88 µM in the assay on TK-10 renal. The TGI in the assay with UACC-62 melanoma worked out at 2.77 µM.
On to `Cc1cc(NCCCCCCCCNc2cc(C)nc3cc(N(C)C)ccc23)c2ccc(N(C)C)cc2n1`, for which the TGI amounted to 21.6 µM in the assay on OVCAR-4 ovarian; 8.04 µM in the assay on HOP-92 NSCLC; 23.1 µM in the assay with UACC-257 melanoma; 49.1 µM in the assay on CCRF-CEM leukemia; 15.2 µM in the assay on NCI-H23 lung; 43.9 µM with SR leukemia. Further, the TGI with SN12C renal is 21.5 µM.
As for `CC1O[C@@H]2CCCCC(=O)[C@]2(C)[C@H]1C` (stereo partly drawn), the TGI with OVCAR-4 ovarian, with HOP-92 NSCLC, in the assay with UACC-257 melanoma, in the assay on CCRF-CEM leukemia, in the assay on SN12C renal and with MALME-3M melanoma was above 100 µM each time. The TGI in the assay with TK-10 renal and with UACC-62 melanoma was above 100 µM throughout.
As for `Cc1cc(C2CC(O)C(CO)O2)c(Br)cc1Br` (stereo not drawn), the GI50 in the assay on HOP-92 NSCLC, with UACC-257 melanoma, in the assay on CCRF-CEM leukemia, with NCI-H23 lung, with SN12C renal and with MALME-3M melanoma was above 100 µM throughout. Moreover, the GI50 in the assay on TK-10 renal is above 100 µM; in the assay on UACC-62 melanoma it was 49.7 µM. In addition, the TGI with HOP-92 NSCLC, with UACC-257 melanoma, in the assay with CCRF-CEM leukemia, in the assay with NCI-H23 lung, in the assay with SN12C renal and with MALME-3M melanoma was above 100 µM in each case. Moreover, the TGI with TK-10 renal and in the assay with UACC-62 melanoma was above 100 µM each time.
With `O=C(Nc1cccc(Cl)c1)Nc1cc(C(F)(F)F)ccc1Cl`, the GI50 in the assay with OVCAR-4 ovarian is 3.8 µM; with UACC-257 melanoma, 2.66 µM; in the assay on CCRF-CEM leukemia, 3.24 µM; with NCI-H23 lung, 2.44 µM; with SR leukemia it was 3.78 µM; in the assay with SN12C renal it was 3.01 µM. The GI50 in the assay with TK-10 renal was 4.29 µM; in the assay on UACC-62 melanoma, 2.8 µM. For the same compound, the TGI was 16.6 µM in the assay on OVCAR-4 ovarian; 5.84 µM in the assay with UACC-257 melanoma; above 100 µM in the assay on CCRF-CEM leukemia; 6.59 µM in the assay with NCI-H23 lung; 38 µM in the assay on SR leukemia; 11.5 µM in the assay with SN12C renal. Besides, the TGI worked out at 39.5 µM with TK-10 renal and 13.7 µM with UACC-62 melanoma.

The values are drawn from PubChem BioAssay (NCI).
